Source: patent US20210255193A1, “LYSINE REACTIVE PROBES AND USES THEREOF” (The Scripps Research Institute, priority 2017, published 2021)
Each block holds one compound with its values, some of them ahead of it.

How the values were obtained:
Assay in all cases: competitive isoTOP-ABPP
Format in all cases: binding
[1] = biological target: T1, EIF3G Eukaryotic translation initiation factor 3 subunit (Homo sapiens, UniProt O75821); details: for R value (DMSO/fragment) for probe 1 labeling: O75821_K280; for R value (DMSO/fragment) for probe 1 labeling / isoTOP-ABPP reactivity ratio at lysine O75821_K280: 231 sol; for isoTOP-ABPP ratio, lysine O75821_K280: 50 uM_231_sol_in vitro
T1 construct: isoTOP-ABPP experiments performed in cell lysates (in vitro); endogenous in cells; host or cells: MDA-MB-231 soluble lysate
Summary of the method: (§1)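 Competition format: fragment (50 μM activated ester, 100 μM guanidinylating agent) versus vehicle in lysate, then lysine probe STP-alkyne at 0.1 mM for 1 h. Quantitation by light/heavy TEV-tag MS1 peak areas, reported as R.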

[2] = biological target: T2, HAUS4 HAUS augmin-like complex subunit 4 (Homo sapiens, UniProt Q9H6D7); details: for R value (DMSO/fragment) for probe 1 labeling: Q9H6D7_K271; for R value (DMSO/fragment) for probe 1 labeling / isoTOP-ABPP reactivity ratio at lysine Q9H6D7_K271 / isoTOP-ABPP ratio (R) at liganded lysine Q9H6D7_K271: 50 uM, in vitro; for R value (DMSO/fragment) for probe 1 labeling / isoTOP-ABPP reactivity ratio at lysine Q9H6D7_K271: 231 sol; for isoTOP-ABPP ratio (R) at liganded lysine Q9H6D7_K271: sol, 231
T2 construct: endogenous in cells; host or cells: MDA-MB-231 (soluble fraction of lysate)
T2 sequence (Q9H6D7 1-363): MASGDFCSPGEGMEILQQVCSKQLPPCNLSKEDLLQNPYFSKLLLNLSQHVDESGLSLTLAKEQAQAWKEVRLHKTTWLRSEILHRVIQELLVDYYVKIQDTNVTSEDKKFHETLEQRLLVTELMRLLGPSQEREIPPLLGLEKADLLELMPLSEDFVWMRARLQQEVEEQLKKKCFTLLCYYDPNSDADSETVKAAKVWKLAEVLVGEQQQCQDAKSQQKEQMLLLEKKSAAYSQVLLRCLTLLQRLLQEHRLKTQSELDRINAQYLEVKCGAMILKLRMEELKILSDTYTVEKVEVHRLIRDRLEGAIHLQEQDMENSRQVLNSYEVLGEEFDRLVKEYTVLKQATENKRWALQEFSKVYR
Summary of the method: as §1

[3] = biological target: T3, PTRF Polymerase I and transcript release factor (Homo sapiens, UniProt Q6NZI2); details: for isoTOP-ABPP ratio (R) at liganded lysine Q6NZI2_K326: sol, 231
T3 construct: isoTOP-ABPP experiments performed in cell lysates (in vitro); endogenous in cells; host or cells: soluble proteome of human cancer cell lines (MDA-MB-231; Ramos and Jurkat also prepared)
T3 sequence (Q6NZI2 1-390): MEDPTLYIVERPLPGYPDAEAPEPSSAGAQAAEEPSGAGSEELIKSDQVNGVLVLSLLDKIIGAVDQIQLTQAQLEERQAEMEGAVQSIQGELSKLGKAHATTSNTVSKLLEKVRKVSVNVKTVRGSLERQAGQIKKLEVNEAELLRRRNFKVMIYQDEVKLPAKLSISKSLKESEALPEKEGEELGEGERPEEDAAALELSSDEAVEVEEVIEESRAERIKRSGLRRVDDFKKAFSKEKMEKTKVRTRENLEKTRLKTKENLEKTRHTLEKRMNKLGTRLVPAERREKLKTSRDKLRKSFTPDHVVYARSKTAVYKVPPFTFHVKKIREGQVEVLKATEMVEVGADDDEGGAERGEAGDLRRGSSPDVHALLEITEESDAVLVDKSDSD
Summary of the method: as §1

T1 sequence (O75821 whole entry, the tested form may be a part): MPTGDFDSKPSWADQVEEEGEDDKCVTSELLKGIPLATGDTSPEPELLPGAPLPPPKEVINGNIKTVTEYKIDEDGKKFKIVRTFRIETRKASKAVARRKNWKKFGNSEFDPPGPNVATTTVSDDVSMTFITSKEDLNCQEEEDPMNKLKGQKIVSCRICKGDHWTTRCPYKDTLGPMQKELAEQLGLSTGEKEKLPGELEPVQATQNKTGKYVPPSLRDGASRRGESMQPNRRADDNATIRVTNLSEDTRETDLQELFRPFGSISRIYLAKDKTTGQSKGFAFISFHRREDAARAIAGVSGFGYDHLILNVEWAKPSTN

R value (DMSO/fragment) for probe 1 labeling ([1]; 50 uM, in vitro): 0.9
R value (DMSO/fragment) for probe 1 labeling [2]: 0.7
SMILES: O=C(Oc1c(F)c(F)c(F)c(F)c1F)C(c1ccccc1)c1ccccc1 [fragment 20, Pentafluorophenyl 2,2-diphenylacetate]

R value (DMSO/fragment) for probe 1 labeling ([1]; 50 uM, in vitro): 1.7
SMILES: O=C(Oc1c(F)c(F)c(F)c(F)c1F)c1cc(C(F)(F)F)cc(C(F)(F)F)c1 [fragment 21, Pentafluorophenyl 3,5-bis(trifluoromethyl)benzoate]

R value (DMSO/fragment) for probe 1 labeling ([1]; 50 uM, in vitro): 0.6
R value (DMSO/fragment) for probe 1 labeling [2]: 0.9
R value (DMSO/fragment) for probe 1 labeling ([3]; Q6NZI2_K326, 50 uM, 231 sol, in vitro): 20.0
SMILES: Cn1cc(CC(=O)Oc2c(F)c(F)c(F)c(F)c2F)c2ccccc21 [fragment 22, Pentafluorophenyl 2-(1-methyl-1H-indol-3-yl)acetate]

isoTOP-ABPP reactivity ratio at lysine Q9H6D7_K271 [2]: 0.8
SMILES: O=C(Oc1c(F)c(F)c(F)c(F)c1F)C1CCN(C(=O)OCc2ccccc2)CC1 [fragment 24, 1-Benzyl 4-(pentafluorophenyl) piperidine-1,4-dicarboxylate]

SMILES: O=C(CCc1cn(-c2ccccc2)nc1-c1ccccc1)Oc1ccc([N+](=O)[O-])cc1[N+](=O)[O-] [fragment 29, 2,4-Dinitrophenyl 3-(1,3-diphenyl-1H-pyrazol-4-yl)propanoate]
isoTOP-ABPP reactivity ratio at lysine O75821_K280 ([1]; 50 uM, in vitro): 5.3
isoTOP-ABPP reactivity ratio at lysine Q6NZI2_K326 ([3]; 50 uM, 231 sol, in vitro): 20.0

SMILES: O=C(Oc1ccc([N+](=O)[O-])cc1[N+](=O)[O-])C(c1ccccc1)c1ccccc1 [fragment 30, 2,4-Dinitrophenyl 2,2-diphenylacetate]
isoTOP-ABPP reactivity ratio at lysine O75821_K280 ([1]; 50 uM, in vitro): 1.0
isoTOP-ABPP reactivity ratio at lysine Q9H6D7_K271 [2]: 1.0

SMILES: Cn1cc(CC(=O)Oc2ccc([N+](=O)[O-])cc2[N+](=O)[O-])c2ccccc21 [fragment 32, 2,4-Dinitrophenyl 2-(1-methyl-1H-indol-3-yl)acetate]
isoTOP-ABPP reactivity ratio at lysine Q9H6D7_K271 [2]: 1.0

SMILES: O=C(Oc1ccc([N+](=O)[O-])cc1[N+](=O)[O-])c1ccc2ccccc2n1 [fragment 35, 2,4-Dinitrophenyl quinoline-2-carboxylate]
isoTOP-ABPP ratio (R) at liganded lysine O75821_K280 ([1]; 50 uM, in vitro, sol, 231): 1.0

SMILES: O=C(Oc1ccc([N+](=O)[O-])cc1[N+](=O)[O-])c1ccc(-c2ccccc2)cc1 [fragment 37, 2,4-Dinitrophenyl [1,1′-biphenyl]-4-carboxylate]
isoTOP-ABPP ratio (R) at liganded lysine Q9H6D7_K271 [2]: 0.7
isoTOP-ABPP ratio (R) at liganded lysine Q6NZI2_K326 ([3]; 50 uM, in vitro): 20.0

SMILES: O=C(Oc1ccc([N+](=O)[O-])cc1[N+](=O)[O-])c1ccc(Oc2ccccc2)cc1 [fragment 39, 2,4-Dinitrophenyl 4-phenoxybenzoate]
isoTOP-ABPP ratio (R) at liganded lysine Q6NZI2_K326 ([3]; 50 uM, in vitro): 0.8

SMILES: O=C(Oc1ccc([N+](=O)[O-])cc1[N+](=O)[O-])c1ccccc1Nc1cccc(C(F)(F)F)c1 [fragment 40, 2,4-Dinitrophenyl 2-((3-(trifluoromethyl)phenyl)amino)benzoate]
isoTOP-ABPP ratio (R) at liganded lysine Q9H6D7_K271 [2]: 0.7
isoTOP-ABPP ratio (R) at liganded lysine Q6NZI2_K326 ([3]; 50 uM, in vitro): 20.0

SMILES: N#Cc1ccc(C(=O)Oc2ccc([N+](=O)[O-])cc2[N+](=O)[O-])cc1 [fragment 44, 2,4-Dinitrophenyl 4-cyanobenzoate]
isoTOP-ABPP ratio, lysine O75821_K280 [1]: 0.9
isoTOP-ABPP ratio, lysine Q9H6D7_K271 ([2]; 50 uM_231_sol_in vitro): 0.9

SMILES: O=C(CCc1ccc2c(c1)OCO2)Oc1ccc([N+](=O)[O-])cc1[N+](=O)[O-] [fragment 45, 2,4-Dinitrophenyl 3-(benzo[d][1,3]dioxol-5-yl)propanoate]
isoTOP-ABPP ratio, lysine O75821_K280 [1]: 0.9
isoTOP-ABPP ratio, lysine Q9H6D7_K271 ([2]; 50 uM_231_sol_in vitro): 1.1
isoTOP-ABPP ratio, lysine Q6NZI2_K326 ([3]; 50 uM_231_sol_in vitro): 0.9

SMILES: O=C(ON1C(=O)CCC1=O)c1cc(C(F)(F)F)cc(C(F)(F)F)c1 [fragment 46, 3,5-Bis(trifluoromethyl)benzoic acid NHS ester]
isoTOP-ABPP ratio, lysine O75821_K280 [1]: 0.8

isoTOP-ABPP ratio, lysine Q9H6D7_K271 ([2]; 100 uM_231_sol_in vitro): 4.3
SMILES: CC(C)(C)OC(=O)N=C(NC(=O)OC(C)(C)C)n1cccn1 [fragment 50, reference compound]
